According to PMC6321601 (Molecules, 2018):

Key:
STAT3 = experiment: Western blot assay, STAT3; assay type: cell-based, human; settings: HepG-2, 24 h, different concentrations
Procedure: (§1) HepG-2 cells were treated with compound 10b for 24 h, and the cell lysates were collected. Then, the total protein was separated by SDS-PAGE and transferred to PVDF membranes. The membranes were incubated with primary antibodies (1:1000) at 4 °C overnight. After being washed with PBST (PBS + 0.5% Tween 20) 5 times, the membranes were incubated with HRP-conjugated secondary antibodies (1:5000 dilution) for 2 h at room temperature. The membranes were then washed with PBST 5 times and the protein blots were detected by ECL chemiluminescence.

Balb/C mice = experiment: In vivo acute toxicity assay; settings: intravenous injection; for percentage of death: three mice
Procedure: To evaluate the toxicity of compound 10b, an acute toxicity assay was performed using Balb/C mice.
Five-week-old Balb/C mice were purchased from the Chinese Academy of Sciences and maintained under specific pathogen free (SPF) conditions. […] The control group mice were treated with vehicle buffer intravenously. […] The compound 10b group mice were treated with compound 10b at doses of 2 mg/kg, 5 mg/kg, 10 mg/kg, 20 mg/kg, and 50 mg/kg respectively (three mice each dose). The clinical symptoms, deaths, and body weight were observed and recorded.

P-STAT3 = experiment: Western blot assay, P-STAT3; assay type: cell-based, human; settings: HepG-2, 24 h, dose-dependent
Procedure: as §1

Bcl-2 = experiment: Western blot assay, Bcl-2; assay type: cell-based, human; settings: HepG-2, 24 h
Procedure: as §1

Bim = experiment: Western blot assay, Bim; assay type: cell-based, human; settings: HepG-2, 24 h
Procedure: as §1

HepG-2 cells = experiment: Cell apoptosis assay, Annexin-V/PI flow cytometry; assay type: cell-based, human; settings: HepG-2, 48 h, 0, 1 and 2 µM
Procedure: HepG-2 cells were seeded into a 24-well plate with 5 × 10^4/well/1 mL. After 12 h, cells were treated with compound 10b at different concentrations for 48 h. The cells were collected, washed with cold PBS, and stained with Annexin-V/PI according to the manufacturer’s instructions. Then, the cells were analyzed with flow cytometry.

[1] = test system: L-O2 human normal liver cells; experiment: MTT assay, toxicity against L-O2 normal cells; assay type: cell-based; settings: 72 h incubation, mean of three independent experiments
Outline: (§2)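 HepG-2 and normal L-O2 liver cells in DMEM with 10% FBS were seeded and, after 12 h, exposed to graded compound concentrations for 72 h at 37 °C. Viability was read by MTT (4 h, formazan dissolved in DMSO, OD 570 nm), and IC50 values were calculated from these readings.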

Bax = experiment: Western blot assay, Bax; assay type: cell-based, human; settings: HepG-2, 24 h
Procedure: as §1

[2] = test system: HepG-2 human hepatocellular carcinoma cells; experiment: MTT assay, proliferation of HepG-2 cells; assay type: cell-based; settings: mean of three independent experiments
Outline: as §2

caspase 3 = experiment: Western blot assay, caspase 3; assay type: cell-based, human; settings: HepG-2, 24 h
Procedure: as §1

[3] = Homo sapiens, HepG2, 72 h incubation

Molecule: CC(=O)OC(C)(C)/C=C/C(=O)[C@](C)(O)C1[C@H](OC(=O)CCC(=O)OCCCOc2no[n+]([O-])c2S(=O)(=O)c2ccccc2)C[C@@]2(C)C3CC=C4C(CC(O)C(=O)C4(C)C)[C@]3(C)C(=O)C[C@]12C (stereo partly drawn) [Compound 10b, 4-(3-((4-(((9R,13R,14S,16R)-17-((R,E)-6-Acetoxy-2-hydroxy-6-methyl-3-oxohept-4-en-2-yl)-2-hydroxy-4,4,9,13,14-pentamethyl-3,11-dioxo-2,3,4,7,8,9,10,11,12,13,14,15,16,17-tetradecahydro-1H-cyclopenta[a]phenanthren-16-yl)oxy)-4-oxobutanoyl)oxy)propoxy)-3-(phenylsulfonyl)-1,2,5-oxadiazole 2-oxide]
- total expression of STAT3 (STAT3): remained little changed
- percentage of death (Balb/C mice; 2 mg/kg): 0/3
- percentage of death (Balb/C mice; 5 mg/kg): 0/3
- percentage of death (Balb/C mice; 10 mg/kg): 0/3
- percentage of death (Balb/C mice; 20 mg/kg): 0/3
- percentage of death (Balb/C mice; 50 mg/kg): 1/3
- body weight change (Balb/C mice; different doses (2-50 mg/kg), compared to the vehicle group): did not change
- level of P-STAT3 (P-STAT3): clearly inhibited
- expression of Bcl-2 (Bcl-2): substantially diminished
- expression of Bim (Bim): strongly increased
- induction of cell apoptosis (HepG-2 cells): significantly induced cell apoptosis in a dose-dependent manner
- IC50 ([1]; Homo sapiens): 2970 ± 230 nM
- expression of Bax (Bax): strongly increased
- IC50 [2, 3]: 630 ± 290 nM
- level of caspase 3 (caspase 3): decreased

Molecule: CC(=O)OC(C)(C)/C=C/C(=O)[C@](C)(O)C1[C@H](OC(=O)CCC(=O)OCC#CCOc2no[n+]([O-])c2S(=O)(=O)c2ccccc2)C[C@@]2(C)C3CC=C4C(CC(O)C(=O)C4(C)C)[C@]3(C)C(=O)C[C@]12C (stereo partly drawn) [Compound 10m, 4-((4-((4-(((9R,13R,14S,16R)-17-((R,E)-6-Acetoxy-2-hydroxy-6-methyl-3-oxohept-4-en-2-yl)-2-hydroxy-4,4,9,13,14-pentamethyl-3,11-dioxo-2,3,4,7,8,9,10,11,12,13,14,15,16,17-tetradecahydro-1H-cyclopenta[a]phenanthren-16-yl)oxy)-4-oxobutanoyl)oxy)but-2-yn-1-yl)oxy)-3-(phenylsulfonyl)-1,2,5-oxadiazole 2-oxide]
- IC50 ([1]; Homo sapiens): 2940 ± 90 nM
- IC50 [2, 3]: 1350 ± 100 nM

Molecule: CC(=O)OC(C)(C)/C=C/C(=O)[C@](C)(O)C1[C@H](OC(=O)CCC(=O)OCC(C)(C)COc2no[n+]([O-])c2S(=O)(=O)c2ccccc2)C[C@@]2(C)C3CC=C4C(CC(O)C(=O)C4(C)C)[C@]3(C)C(=O)C[C@]12C (stereo partly drawn) [Compound 10n, 4-(3-((4-(((9R,13R,14S,16R)-17-((R,E)-6-Acetoxy-2-hydroxy-6-methyl-3-oxohept-4-en-2-yl)-2-hydroxy-4,4,9,13,14-pentamethyl-3,11-dioxo-2,3,4,7,8,9,10,11,12,13,14,15,16,17-tetradecahydro-1H-cyclopenta[a]phenanthren-16-yl)oxy)-4-oxobutanoyl)oxy)-2,2-dimethylpropoxy)-3-(phenylsulfonyl)-1,2,5-oxadiazole 2-oxide]
- IC50 ([1]; Homo sapiens): 3310 ± 180 nM
- IC50 [2, 3]: 1110 ± 220 nM

Molecule: CC(=O)OC(C)(C)/C=C/C(=O)[C@](C)(O)C1[C@H](OC(=O)CCC(=O)OCc2ccc(COc3no[n+]([O-])c3S(=O)(=O)c3ccccc3)cc2)C[C@@]2(C)C3CC=C4C(CC(O)C(=O)C4(C)C)[C@]3(C)C(=O)C[C@]12C (stereo partly drawn) [Compound 10o, 4-((4-(((4-(((9R,13R,14S,16R)-17-((R,E)-6-Acetoxy-2-hydroxy-6-methyl-3-oxohept-4-en-2-yl)-2-hydroxy-4,4,9,13,14-pentamethyl-3,11-dioxo-2,3,4,7,8,9,10,11,12,13,14,15,16,17-tetradecahydro-1H-cyclopenta[a]phenanthren-16-yl)oxy)-4-oxobutanoyl)oxy)methyl)benzyl)oxy)-3-(phenylsulfonyl)-1,2,5-oxadiazole 2-oxide]
- IC50 ([1]; Homo sapiens): 3000 ± 260 nM
- IC50 [2, 3]: 1020 ± 280 nM

Molecule: CC(=O)OC(C)(C)/C=C/C(=O)[C@](C)(O)C1[C@H](OC(=O)CCC(=O)O)C[C@@]2(C)C3CC=C4C(C[C@H](O)C(=O)C4(C)C)[C@]3(C)C(=O)C[C@]12C (stereo partly drawn) [Compound 11, 4-(((2S,9R,13R,14S,16R)-17-((R,E)-6-Acetoxy-2-hydroxy-6-methyl-3-oxohept-4-en-2-yl)-2-hydroxy-4,4,9,13,14-pentamethyl-3,11-dioxo-2,3,4,7,8,9,10,11,12,13,14,15,16,17-tetradecahydro-1H-cyclopenta[a]phenanthren-16-yl)oxy)-4-oxobutanoic acid]
- IC50 ([1]; Homo sapiens): > 20000 nM
- IC50 [2, 3]: > 20000 nM

Molecule: cucurbitacin B [Compound 1, reference compound]
- IC50 [1]: 19 ± 3 nM
- IC50 ([2]; 72 h incubation): 60 ± 20 nM
